Experiments:
Format in all cases: cell-based
[1] = test system: Lactobacillus plantarum 14917; experiment: Suspended Cells Challenge Test, 20 s residence time, no surfactant (Example 2)
Method: (§1) Synergism with respect to efficacy in a Suspended Cells Challenge Test at 20 s residence time with no surfactant.
(§2) The experimental treatment groups were tap water, chlorinated water, a FE sanitizer wash water (FE, FE sanitizer, a solution of peroxyacetic acid and lactic acid, as further specified in a given experiment).
(§3) The experimental protocol was as follows: • 1. Transfer 1.00 mL of a ˜10^8 cfu/g Lactobacillus plantarum (ATCC 14917) stock culture into a test tube containing 9.00 mL of treatment test solution • 2. Vortex the mixture for 15 s • 3. Stop the reaction by transferring 1 mL of the treated samples to 9 mL of Butterfield Phosphate Buffer • 4. Enumerate viable residual cells through serial dilutions and spread plating with 1-mL transfers • 5. […] Repeat Steps 1 to 5 two more times • 7. Repeat Steps 1 to 6 with flume water • 8. Repeat Steps 1 to 6 with chlorinated water • 9. Repeat Steps 1 to 8 with various levels of FE • 10. Repeat Steps 1 to 8 with various levels of lactic acid • 11. Repeat Steps 1 to 8 with various levels of peroxyacetic acid • 12. Repeat Steps 1 to 11 with Listeria innocua (ATCC33090)
(§4) • 1. Log […] is a measure of the percent of microorganisms that are inactivated during the disinfection process and is defined as Log Inactivation=Log10 (No/NT) where No is the initial influent concentration of viable microorganisms; NT is the concentration of surviving microorganisms. As M cfu/g=microbial population of stock culture; W cfu/g=microbial population in solution of “Water Treatment” and X cfu/g=microbial population in solution of “X Treatment,” the Log reduction caused by “Treatment X”=Log (w/x)

[2] = test system: Listeria innocua ATCC 33090; experiment: as above
Method: as §1, §2, §3, §4

[3] = test system: Listeria innocua (ATCC 33090); experiment: Attached cells on vegetable and fruit surface (Example 7); conditions: Whole Strawberry, 45 sec
Method: (§5) Inoculum preparation: ATCC freeze dried culture was rehydrated in 10 mL of sterilized tryptic soy broth and mixed homogeneously. 0.1 mL of the stock solution was transferred to 10 mL of TSB and incubated at 37C for 24 h. Enrichment was streaked to confirm purity. 2 mL of the enriched stock was transferred to 200 mL of TSB and incubated at 37C for 24 h and 36 h, respectively for E. coli K-12 (ATCC 25253) (EC) and Listeria innocua (ATCC 33090) (LI) resulting in ˜10^8 cfu/mL stationary phase culture stock. The stock was cooled for at 4C for 1 h. Microbial population of the stationary phase stock culture was enumerated by means of serial dilution with 9-mL Butterfield phosphate buffer tubes and spread plating on Tryptic Soy Agar (TSA) pre-poured agar plates for EC or Modified Oxford Agar (MOX) pre-poured agar plates for LI.
(§6) Vegetable and fruit surface inoculation: The 200 mL˜10^8 cfu/mL stock culture solution was homogeneously mixed by shaking and swirling the Erlenmeyer flask. The 200 mL culture was separated into 4 centrifuge tubes (50 mL each) and centrifuged at 10,000 rpm and 4C for 15 min. The stock culture pellet was re-suspended with 5 mL of 5% Horse Serum. All the re-suspended cultures from the four centrifuge tubes were combined to form 20 mL˜10^9 cfu/mL inoculating stock culture. The outer peel or surface of the test vegetable and fruit was cut into 5cm×2.5 cm pieces or diced into […] cubes in the case of tomatoes for inoculation. 50 uL inoculum in the form of 2 uL droplets were spiked onto the strawberry, and diced tomato surface while 100 uL in the form of 2 uL droplets were inoculated onto the potato peel. The spiked surfaces or peels were placed in a biological safety cabinet for 60 min at 18 to 24C for drying.
(§7) Treatment of inoculated vegetable and fruit surfaces: Each sample of inoculated vegetable or fruit surface was placed into a 2.5L stomacher bag containing 500 mL of the tested solution and shook vigorously for 45 s. The tested solutions included city water, lactic acid solution (LA), peracetic acid solution (PA), and FreshRinse solution (FR). The treated vegetable or fruit surface was immediately transferred into a sterile stomacher bag containing 100 mL of Butterfield phosphate buffer with 1 sodium thiosulfate pellet at the end of the 45 s treatment. Each solution treatment was performed in duplications. The reduction for each solution treatment was compared to that of the city water treatment.

[4] = test system: E. coli K-12 (ATCC 25253); experiment: as above; conditions: 45 sec
Method: as §5, §6, §7

E. coli K12 = experiment: Attached cells challenge test on produce leaves (Example 1)
[5] = Peroxyacetic acid 0 ppm, Lactic Acid 2000 ppm
[6] = Peroxyacetic acid 0 ppm, Lactic Acid 2500 ppm
[7] = Peroxyacetic acid 0 ppm, Lactic Acid 3000 ppm
[8] = Peroxyacetic acid 70 ppm, Lactic Acid 0 ppm
[9] = Peroxyacetic acid 75 ppm, Lactic Acid 0 ppm
[10] = Peroxyacetic acid 80 ppm, Lactic Acid 0 ppm

CC(O)C(=O)O (centres unmarked) [Lactic Acid, lactic acid]
log reduction of suspended cells [1, 5]: 0.00 log10 | log reduction of suspended cells [1, 6]: 0.02 log10 | log reduction of suspended cells [1, 7]: 0.01 log10 | log reduction of suspended cells [2, 5]: 0.08 log10 | log reduction of suspended cells [2, 6]: 0.19 log10 | log reduction of suspended cells [2, 7]: 0.05 log10 | Log reductions ([3]; PA 0 ppm, LA 1,500 ppm): 0.0 | Log reductions ([3]; PA 0 ppm, LA 3,000 ppm): 0.5 | Log reductions ([4]; Diced Tomato, PA 0 ppm, LA 1,500 ppm): 0.1 | Log reductions ([4]; Diced Tomato, PA 0 ppm, LA 3,000 ppm): 0.0 | Log reductions ([4]; Potato peel, PA 0 ppm, LA 1,500 ppm): 0.1 | Log reductions ([4]; Potato peel, PA 0 ppm, LA 3,000 ppm): 0.0 | Log reduction, attached cells (E. coli K12; Romaine, PAA 0 ppm, LA 0.6%): 0.24 | Log reduction, attached cells (E. coli K12; Romaine, PAA 0 ppm, LA 0.9%): 0.37 | Log reduction, attached cells (E. coli K12; Romaine, PAA 0 ppm, LA 1.2%): 1.28 | Log reduction, attached cells (E. coli K12; Spinach, PAA 0 ppm, LA 0.6%): 0.09 | Log reduction, attached cells (E. coli K12; Spinach, PAA 0 ppm, LA 0.9%): 0.42 | Log reduction, attached cells (E. coli K12; Spinach, PAA 0 ppm, LA 1.2%): 0.81

CC(=O)OO [Peroxyacetic acid, peroxyacetic acid]
log reduction of suspended cells [1, 8]: 4.52 log10 | log reduction of suspended cells [1, 9]: 5.59 log10 | log reduction of suspended cells [1, 10]: 5.59 log10 | log reduction of suspended cells [2, 8]: 1.40 log10 | log reduction of suspended cells [2, 9]: 1.70 log10 | log reduction of suspended cells [2, 10]: 1.80 log10 | Log reductions ([3]; PA 50 ppm, LA 0 ppm): 1.1 | Log reductions ([4]; Diced Tomato, PA 60 ppm, LA 0 ppm): 0.6 | Log reductions ([4]; Diced Tomato, PA 80 ppm, LA 0 ppm): 0.7 | Log reductions ([4]; Potato peel, PA 60 ppm, LA 0 ppm): 1.0 | Log reductions ([4]; Potato peel, PA 80 ppm, LA 0 ppm): 1.2 | Log reduction, attached cells (E. coli K12; Romaine, PAA 60 ppm, LA 0.0%): 0.26 | Log reduction, attached cells (E. coli K12; Romaine, PAA 70 ppm, LA 0.0%): 0.53 | Log reduction, attached cells (E. coli K12; Romaine, PAA 80 ppm, LA 0.0%): 1.18 | Log reduction, attached cells (E. coli K12; Spinach, PAA 60 ppm, LA 0.0%): 0.69 | Log reduction, attached cells (E. coli K12; Spinach, PAA 70 ppm, LA 0.0%): 1.33 | Log reduction, attached cells (E. coli K12; Spinach, PAA 80 ppm, LA 0.0%): 2.46
